17 molecules from patent US20240093034A1, “FLUORESCENT DYES” (EXOPHARM LIMITED, priority 2020, published 2024) can be followed below.

The subject of assay [1] is normal human dermal fibroblasts (NHDF). In words: Labelling of human cells with dyes (plate fluorescence). Type of assay: cell-based. Conditions: 2 μM dye, 1 hr 37° C., washed with HBSS; higher = more incorporation. The procedure:
Labelling of human cells with dyes 1-10 was performed according to the following procedure. Each well of a Costar 96 well flat bottom plate was seeded with 5,000 normal human dermal fibroblasts (NHDF; not older than P9) and allowed to attach overnight in full media: fibroblast growth media (Lonza)+2% v/v fetal calf serum. Each dye was diluted 1:50 from a stock of 1 mM with 10 mM L-histidine, 150 mM NaCl, pH 6.0, to a final concentration of 20 μM. The dye was subsequently added to full media at a further 1:10 dilution to a final concentration of 2 μM. The media on the cells was subsequently replaced with the freshly prepared full media containing the dye. For negative controls, an equivalent volume of the diluent solution was added to the cell solution. Cells were incubated for 1 hr at 37° C. and then washed with 1 xHBSS (Hank's balanced salt solution) to remove free dye. Plate was imaged using the CLARIOStar spectrophotometer (5x5 matrix mode, average of 25 data points, 3 wells for each dye). A higher fluorescence indicates a higher amount of incorporation into the cells.

Assay [2] has as its system platelet-derived EVs. Kind of assay: Labelling of extracellular vesicles with dyes (Superose 6 HPLC, UV and FLD detection). Conditions: EV + 2 μM dye; for FLD area (EV + dye): 1 hr 37° C., void peak area, 562 nm/583 nm (Ex/Em); for Area FLD/Area UV (EV + dye): higher ratio = greater incorporation. The procedure: Labelling of extracellular vesicles (EVs) with dyes 1-10 was performed according to the following procedure. 20 μL of platelet-derived EVs were incubated in HPLC vials with or without each dye at a final concentration of 2 μM dye, the dye stock solution being made up in water. For negative controls, an equivalent volume of the diluent solution was added to the EV solution. The sample was mixed gently. Each sample was subsequently incubated for 1 hr at 37° C. Samples were transferred and stored in the autosampler set at 4° C. A batch table was setup that injected unlabelled EVs prior to labelled EVs. A blank injection was run after each labelled EV experiment to ensure there was no carryover. 15 μL of each sample was injected onto a Superose 6 Increase column (3.2/300) from Cytiva. The flow rate was set at 0.15 mL min* The Shimadzu BioHPLC was run in isocratic mode with Buffer A: 1× PBS (phosphate-buffered saline), pH 7.4, 100 nm filtered. The column oven temperature was set at 30° C. Total run duration was 30 min. Data was collected using two detectors. The PDA (UV detector) was set to scan from 190-800 nm and a channel of the FLD (fluorescence detector) was set at 562 nm/583 nm (Ex/Em). Titration experiments were conducted to confirm that excess dye was removed. The areas of the void peaks from the 214 nm absorption and the 583 nm emission were calculated by the LabSolutions software using the manual integration function. To normalise the fluorescent signal, the total fluorescent area was divided by the UV 214 nm area. This ratio can be used to rank each dye, with higher ratios indicative of greater incorporation.

The subject of assay [3] is NHDF cells. Kind of assay: Labelling of NHDF cells with dyes alone and with EVs (Plexaris) labelled with dyes. As to conditions: for incorporation into NHDFs, Plexaris (PLX)+dye (FIG. 6): Example 9, 0.2 μM dye, 1 hr 37° C.; for extent of incorporation into cells versus dye 2 alone (FIG. 4(a)) / extent of incorporation into cells versus PLX+dye 2 (FIG. 4(b)): 0.2 μM; for extent of incorporation into cells versus dye 2 alone (FIG. 4(a)): normalised to dye 2; for extent of incorporation into cells versus PLX+dye 2 (FIG. 4(b)): dye with PLX, normalised to Plexaris+dye 2. The format is cell-based, human. The method, then: (§1) Labelling of NHDF cells with dyes 11-18 alone and EVs labelled with dyes 11-18 was performed according to the following procedure. Each well of a Costar 96 well flat bottom plate was seeded with 5,000 normal human dermal fibroblasts (NHDF; not older than P9) and allowed to attach overnight in full media: fibroblast growth media (Lonza)+2% v/v fetal calf serum. Each dye was diluted in water to a final concentration of 1 mM. The dyes were then diluted to a final concentration of 2 μM in either a base formulation (1× PBS) or a sample of Plexaris (purified EVs derived from platelets) in 1× PBS and incubated at 1 hr at 37° C. The dyes were subsequently added onto the NHDFs at a further 1:10 dilution to a final concentration of 0.2 μM. Cells were incubated for 1 hr at 37° C. and then washed with 1× HBSS (Hank's balanced salt solution) to remove free dye. Plate was imaged using the CLARIOStar spectrophotometer (5×5 matrix mode, average of 25 data points, 3 wells for each dye). The data was normalised against either dye 2 or Plexaris+dye 2. A higher fluorescence indicates a higher amount of incorporation into the cells.
as §1, with “with” for “with dyes 11-18 alone and”, “4, 6, 17, 18, 23, 24 and 25” for “11-18”, “phosphate buffered saline (PBS)” for “water”, “in” for “in either a base formulation (1× PBS) or a sample of”, “in” for “in 1×”, “against” for “against either dye 2 or”

`CCCCCCCCCCCCCCN(CCCCC)C(=O)c1ccccc1-c1c2ccc(=[N+](CC)CC)cc-2oc2cc(N(CC)CC)ccc12.[Cl-]` [Dye 5, Rhodamine B N-pentyltetradecanamide] came in with an FLD in assay [1] of 106332. For the same molecule, in assay [2], the “FLD area (EV + dye)” value was found to be 2405326 and the “Area FLD/Area UV (EV + dye)” value worked out at 1.25.
Regarding `CCCCCCCCCCCCCCCCCCCCCCN(C)C(=O)c1ccccc1-c1c2ccc(=[N+](CC)CC)cc-2oc2cc(N(CC)CC)ccc12.[Cl-]` [Dye 4], in assay [3], the “incorporation into NHDFs, Plexaris (PLX)+dye (FIG. 6)” value (from here on “incorporation into NHDFs, Plexaris”) is on record as “found to incorporate into NHDFs”. Also, the FLD in assay [1] worked out at 18027. Besides, in assay [2], the “FLD area (EV + dye)” value worked out at 1901680 and the “Area FLD/Area UV (EV + dye)” value stood at 2.08.
Regarding `CCCCCCCCCCCCCCCCCCN(CCC)C(=O)c1ccccc1-c1c2ccc(=[N+](CC)CC)cc-2oc2cc(N(CC)CC)ccc12.[Cl-]` [Dye 14, Rhodamine B N-propyloctadecylamide], in assay [3], the “extent of incorporation into cells versus dye 2 alone (FIG. 4(a))” value was “incorporated to the cells to a larger extent” and the “extent of incorporation into cells versus PLX+dye 2 (FIG. 4(b))” value is reported as “incorporated to the cells to a larger extent”.
In assay [1], `CCCCCCCCCCCCCCCCN(C)C(=O)c1ccccc1-c1c2ccc(=[N+](CC)CC)cc-2oc2cc(N(CC)CC)ccc12.[Cl-]` [Dye 1, Rhodamine B N-methylhexadecylamide] had an FLD of 120641. In addition, in assay [2], the “FLD area (EV + dye)” value is 2281007 and the “Area FLD/Area UV (EV + dye)” value turned out to be 2.09.
As to `CCCCCCCCCCCCCCCCCCN(CCCCC)C(=O)c1ccccc1-c1c2ccc(=[N+](CC)CC)cc-2oc2cc(N(CC)CC)ccc12.[Cl-]` [Dye 6, Rhodamine B N-pentyloctadecanamide], the “incorporation into NHDFs, Plexaris” value in assay [3] is “found to incorporate into NHDFs”. The same molecule came in with an FLD in assay [1] of 20270. Moreover, in assay [2], the “FLD area (EV + dye)” value stood at 4247970 and the “Area FLD/Area UV (EV + dye)” value worked out at 2.36.
In assay [1], `CCCCCCCCCCCCCCCCCCCCN(C)C(=O)c1ccccc1-c1c2ccc(=[N+](CC)CC)cc-2oc2cc(N(CC)CC)ccc12.[Cl-]` [Dye 3, Rhodamine B N-methylicosaneamide] registered an FLD of 43073. For the same molecule, in assay [2], the “FLD area (EV + dye)” value worked out at 4270562 and the “Area FLD/Area UV (EV + dye)” value is reported as 3.63.
On to `CCCCCCCC/C=C/CCCCCCCCN(C)C(=O)c1ccccc1-c1c2cc/c(=[N+](/CC)CC(F)(F)F)cc-2oc2cc(N(CC)CC(F)(F)F)ccc12.[Cl-]` [Dye 24], for which the “incorporation into NHDFs, Plexaris” value in assay [3] was “found to incorporate into NHDFs”.
Turning to `CCCCCCCCCCCCCCCCCCCN(C)C(=O)c1ccccc1-c1c2ccc(=[N+](CC)CC)cc-2oc2cc(N(CC)CC)ccc12.[Cl-]` [Dye 12, Rhodamine B N-methylnonadecylamide], in assay [3], the “extent of incorporation into cells versus dye 2 alone (FIG. 4(a))” value was “incorporated to the cells to a larger extent” and the “extent of incorporation into cells versus PLX+dye 2 (FIG. 4(b))” value is given as “incorporated to the cells to a larger extent”.
For the molecule `CCCCCCCCCCCCCCCCCCN(CCO)C(=O)c1ccccc1-c1c2ccc(=[N+](CC)CC)cc-2oc2cc(N(CC)CC)ccc12.[Cl-]` [Dye 9, Rhodamine B N-(2-hydroxyethyl)octadecanamide], the FLD in assay [1] came to 83536. Besides, in assay [2], the “FLD area (EV + dye)” value came out at 4558422 and the “Area FLD/Area UV (EV + dye)” value is 3.33.
For `CCCCCCCC/C=C\CCCCCCCCN(C)C(=O)c1ccccc1-c1c2cc/c(=[N+](/CC)CC(F)(F)F)cc-2oc2cc(N(CC)CC(F)(F)F)ccc12.[Cl-]` [Dye 25, hexafluoro rhodamine B N-methyloleylamide], in assay [3], the “incorporation into NHDFs, Plexaris” value was “found to incorporate into NHDFs”.
For `CCCCCCCC/C=C\CCCCCCCCN(C)C(=O)c1ccccc1-c1c2ccc(=[N+](CC)CC)cc-2oc2cc(N(CC)CC)ccc12` [Dye 17, Rhodamine B N-methyloleylamide], in assay [3], the “incorporation into NHDFs, Plexaris” value was “found to incorporate into NHDFs”; the “extent of incorporation into cells versus dye 2 alone (FIG. 4(a))” value was “incorporated to the cells to a larger extent”; the “extent of incorporation into cells versus PLX+dye 2 (FIG. 4(b))” value is “incorporated to the cells to a larger extent”.
Turning to `CCCCCCCCCCCCCCCCCCN(C)C(=O)c1ccccc1-c1c2cc/c(=[N+](/CC)CC(F)(F)F)cc-2oc2cc(N(CC)CC(F)(F)F)ccc12.[Cl-]` [Dye 23, hexafluoro Rhodamine B N-methyloctadecylamide], the “incorporation into NHDFs, Plexaris” value in assay [3] was “found to incorporate into NHDFs”.
On to `CCCCCCCCCCCCCCCCN(CCOC)C(=O)c1ccccc1-c1c2ccc(=[N+](CC)CC)cc-2oc2cc(N(CC)CC)ccc12.[Cl-]` [Dye 7, Rhodamine B N-ethyl methyl ether hexadecanamide], for which the FLD in assay [1] came out at 97347. In addition, in assay [2], the “FLD area (EV + dye)” value is listed as 1456410 and the “Area FLD/Area UV (EV + dye)” value worked out at 1.38.
In assay [1], `CCCCCCCCCCCCCCCCCCCCN(CCOC)C(=O)c1ccccc1-c1c2ccc(=[N+](CC)CC)cc-2oc2cc(N(CC)CC)ccc12.[Cl-]` [Dye 10, Rhodamine B N-ethyl methyl ether icosaneamide] yielded an FLD of 45943. In assay [2], the “FLD area (EV + dye)” value is 2826617 and the “Area FLD/Area UV (EV + dye)” value is on record as 2.55.
With `CCCCCCCCCCCCCCCCCCN(CC)C(=O)c1ccccc1-c1c2ccc(=[N+](CC)CC)cc-2oc2cc(N(CC)CC)ccc12.[Cl-]` [Dye 15, Rhodamine B N-ethyloctadecylamide], in assay [3], the “extent of incorporation into cells versus dye 2 alone (FIG. 4(a))” value is “incorporated to the cells to a larger extent” and the “extent of incorporation into cells versus PLX+dye 2 (FIG. 4(b))” value was “incorporated to the cells to a larger extent”.
For `CCCCCCCC/C=C/CCCCCCCCN(C)C(=O)c1ccccc1-c1c2ccc(=[N+](CC)CC)cc-2oc2cc(N(CC)CC)ccc12` [Dye 18, Rhodamine B N-methylelaidylamide], in assay [3], the “incorporation into NHDFs, Plexaris” value is on record as “found to incorporate into NHDFs”; the “extent of incorporation into cells versus dye 2 alone (FIG. 4(a))” value is reported as “incorporated to the cells to a larger extent”; the “extent of incorporation into cells versus PLX+dye 2 (FIG. 4(b))” value was “incorporated to the cells to a larger extent”.
For the molecule `CCCCCCCCCCCCCCCCCCN(CCOC)C(=O)c1ccccc1-c1c2ccc(=[N+](CC)CC)cc-2oc2cc(N(CC)CC)ccc12.[Cl-]` [Dye 8, Rhodamine B N-ethyl methyl ether octadecanamide], the FLD in assay [1] was 83404. Moreover, in assay [2], the “FLD area (EV + dye)” value stood at 3422473 and the “Area FLD/Area UV (EV + dye)” value is given as 2.92.
